Measured values: patent US20040024024A1, “Aromatic sulfone hydroxamates and their use as protease inhibitors” (priority 2001, published 2004)

How the values were obtained:
Human recombinant MMP-2 = molecular target: T1, Human recombinant MMP-2 (Homo sapiens, UniProt P08253); assay: In vitro MMP inhibition, IC50 determination (fluorogenic substrate I); format: biochemical
T1 construct: made in house; host or cells: MMP-2-transfected p2AHT2 cells
T1 sequence (P08253 110-660): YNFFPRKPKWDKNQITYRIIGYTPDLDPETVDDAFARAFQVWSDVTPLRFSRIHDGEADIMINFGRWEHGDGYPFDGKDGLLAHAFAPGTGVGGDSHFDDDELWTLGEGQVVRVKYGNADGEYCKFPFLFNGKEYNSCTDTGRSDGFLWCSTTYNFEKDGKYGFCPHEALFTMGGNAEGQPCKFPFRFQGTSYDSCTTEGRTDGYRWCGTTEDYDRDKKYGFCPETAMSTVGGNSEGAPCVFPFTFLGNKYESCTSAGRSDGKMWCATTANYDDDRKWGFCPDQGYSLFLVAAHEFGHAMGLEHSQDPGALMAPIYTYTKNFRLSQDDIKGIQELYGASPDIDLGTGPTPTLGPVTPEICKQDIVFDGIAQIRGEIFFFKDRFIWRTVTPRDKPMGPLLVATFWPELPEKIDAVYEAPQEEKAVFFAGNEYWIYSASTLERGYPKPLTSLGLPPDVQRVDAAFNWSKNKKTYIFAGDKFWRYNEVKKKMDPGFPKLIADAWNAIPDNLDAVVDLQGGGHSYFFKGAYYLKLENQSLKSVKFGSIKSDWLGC
How it was run: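 APMA- or trypsin-activated recombinant MMP-2 was incubated at room temperature with serial inhibitor dilutions in Tris buffer pH 7.5 (100 mM NaCl, 10 mM CaCl2, 0.05% Brij), with DMSO from 1% stocks, and 4 μM substrate I. Cleavage was read by fluorescence at 328/415 nm; IC50 was taken from the loss of fluorescence versus inhibitor concentration.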

Human recombinant MMP-13 = molecular target: T2, Human recombinant MMP-13 (Homo sapiens, UniProt P45452); assay: as above; format: biochemical
T2 construct: made in house; host or cells: baculovirus / insect cells
How it was run: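 Fluorescence at 415 nm (excitation 328 nm) reports Gly-Leu cleavage of 4 μM quenched methoxycoumarin peptide substrate I. Human recombinant MMP-13, activated by trypsin or APMA, was incubated at room temperature with varied inhibitor concentrations in pH 7.5 Tris/NaCl/CaCl2 buffer; IC50 derived from reduced fluorescence.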

[1] = value outside parentheses (Ki in parenthesis)
[2] = substrate (I) 4 μM, room temperature, values not in parenthesis

IC50 (Human recombinant MMP-2; [1]) [nM]	IC50 (Human recombinant MMP-13; [1]) [nM]	SMILES	further results
7700	2.4	O=C1c2cc3ccccc3cc2C(=O)N1CCCOc1ccc(S(=O)(=O)C2(C(=O)NO)CCOCC2)cc1 [Example 343]	–
–	–	C[C@@H]1C(=O)N(CCCOc2ccc(S(=O)(=O)C3(C(=O)NO)CCOCC3)cc2)C(=O)N1c1ccc(OC(F)(F)F)cc1 [Example 136]	IC50 (Human recombinant MMP-2; value outside parenthesis): 229 nM; IC50 (Human recombinant MMP-13; value outside parenthesis): 4.4 nM
6000	305	C[C@@H](COc1ccc(S(=O)(=O)C2(C(=O)NO)CCOCC2)cc1)NC(=O)c1ccc(N(C)C)cc1 [Example 395]	–
17	8.6	COc1ccc2c(c1)CCCN2CCCCCOc1ccc(S(=O)(=O)C2(C(=O)NO)CCOCC2)cc1 [Example 416]	–
900	37	Cc1cc(C)c(C(=O)NCCCOc2ccc(S(=O)(=O)C3(C(=O)NO)CCOCC3)cc2)c(C)c1 [Example 370]	–
454	30	CCCC(C)(C)C(=O)NCCCOc1ccc(S(=O)(=O)C2(C(=O)NO)CCOCC2)cc1 [Example 402]	–
–	–	CC(=O)NC(C)(C)CCOc1ccc(S(=O)(=O)C2(C(=O)NO)CCN(C3CC3)CC2)cc1 [Example 221]	IC50 (Human recombinant MMP-2; value outside parenthesis): 8800 nM; IC50 (Human recombinant MMP-13; value outside parenthesis): 244 nM
7.8	2.5	COc1cc(SC)ccc1C(=O)NNC(=O)CCCOc1ccc(S(=O)(=O)C2(C(=O)NO)CCOCC2)cc1 [Example 314]	–
–	–	O=C(NO)C1(S(=O)(=O)c2ccc(OCCCc3cccnc3)cc2)CCOCC1 [Example 575]	IC50 (Human recombinant MMP-2; value outside parentheses): 8.4 nM; IC50 (Human recombinant MMP-13; value outside parentheses): 2 nM
347	3.7	COc1ccc(C(=O)NCCCOc2ccc(S(=O)(=O)C3(C(=O)NO)CCOCC3)cc2)cc1OC [Example 362]	–
–	–	COc1ccc(C(=O)NCCCOc2ccc(S(=O)(=O)C3(C(=O)NO)CCOCC3)cc2)cc1 [Example 17, tetrahydro-N-hydroxy-4-[[4-[3-[(4-methoxybenzoyl)amino]propoxy]phenyl]sulfonyl]-2H-pyran-4-carboxamide]	IC50 (Human recombinant MMP-2; [2]): 550 nM; IC50 (Human recombinant MMP-13; [2]): 1.6 nM
254	15	CC(C)(C(=O)NCCCOc1ccc(S(=O)(=O)C2(C(=O)NO)CCOCC2)cc1)c1ccccc1 [Example 404]	–
–	–	O=C(NO)C1(S(=O)(=O)c2ccc(OCCCc3cccc(-c4ccccn4)c3)cc2)CCOCC1 [Example 153]	IC50 (Human recombinant MMP-2; value outside parenthesis): 192 nM; IC50 (Human recombinant MMP-13; value outside parenthesis): 7.6 nM
1210	933	COc1ccc(C(=O)NCCNc2ccc(S(=O)(=O)C3(C(=O)NO)CCOCC3)cc2)cc1 [Example 339]	–
235	4.5	N#Cc1cccc(C(=O)NCCCOc2ccc(S(=O)(=O)C3(C(=O)NO)CCOCC3)cc2)c1 [Example 367]	–
3300	40	COC(=O)c1ccccc1S(=O)(=O)N1CC(Oc2ccc(S(=O)(=O)C3(C(=O)NO)CCOCC3)cc2)C1 [Example 482]	–
1.3	2	C=CCCCOc1ccc(S(=O)(=O)C2(C(=O)NO)CCOCC2)cc1 [Example 481]	–
326	9	O=C(NCCCOc1ccc(S(=O)(=O)C2(C(=O)NO)CCOCC2)cc1)C1CCCC1 [Example 400]	–
1270	5.9	COc1ccc2cc(O)c(C(=O)NCCCOc3ccc(S(=O)(=O)C4(C(=O)NO)CCOCC4)cc3)cc2c1 [Example 377]	–
351	7.5	O=C(NCCCOc1ccc(S(=O)(=O)C2(C(=O)NO)CCOCC2)cc1)c1ccncc1 [Example 383]	–
8.9	7.6	O=C(NO)C1(S(=O)(=O)c2ccc(OCCCOc3ccccc3C(F)(F)F)cc2)CCOCC1 [Example 444]	–
61	8	O=C(NO)C1(S(=O)(=O)c2ccc(OCCCCN3CCCc4ccccc43)cc2)CCOCC1 [Example 413]	–
220	7	COc1ccc(S(=O)(=O)C[C@H](C)COc2ccc(S(=O)(=O)C3(C(=O)NO)CCOCC3)cc2)cc1 [Example 433]	–
768	14.6	COc1ccc(C(=O)NCCCNc2ccc(S(=O)(=O)C3(C(=O)NO)CCOCC3)cc2)cc1 [Example 358]	–
–	–	CN(C)c1c(F)cc(-c2noc(CCCOc3ccc(S(=O)(=O)C4(C(=O)NO)CCOCC4)cc3)n2)cc1F [Example 251]	IC50 (Human recombinant MMP-2; value outside parenthesis): 182 nM; IC50 (Human recombinant MMP-13; value outside parenthesis): 5.4 nM
12.7	4.6	CC(C)N(Cc1ccc(C(=O)CCCCOc2ccc(S(=O)(=O)C3(C(=O)NO)CCOCC3)cc2)cc1)C(C)C [Example 344]	–

IC50 (Human recombinant MMP-2; [1]) [nM]	IC50 (Human recombinant MMP-13; [1]) [nM]	SMILES	further results
–	–	O=C(CCCOc1ccc(S(=O)(=O)C2(C(=O)NO)CCOCC2)cc1)Nc1cccc(-c2ccccc2)c1 [Example 571]	IC50 (Human recombinant MMP-2; value outside parentheses): 11.9 nM; IC50 (Human recombinant MMP-13; value outside parentheses): 1.6 nM
–	–	COCCN1CCC(C(=O)NO)(S(=O)(=O)c2ccc(OCCCn3cc(-c4ccc(F)cc4)cn3)cc2)CC1 [Example 222]	IC50 (Human recombinant MMP-2; value outside parenthesis): 138 nM; IC50 (Human recombinant MMP-13; value outside parenthesis): 13.3 nM
–	–	CCN1CCC(C(=O)NO)(S(=O)(=O)c2ccc(OCCCSc3nc4ccccc4o3)cc2)CC1 [Example 525]	IC50 (Human recombinant MMP-2; value outside parentheses): 7.5 nM; IC50 (Human recombinant MMP-13; value outside parentheses): 1.5 nM
–	–	COCCN1CCC(C(=O)NO)(S(=O)(=O)c2ccc(OCCCn3nnc(-c4ccccc4OC)n3)cc2)CC1 [Example 180]	IC50 (Human recombinant MMP-2; value outside parenthesis): 443 nM; IC50 (Human recombinant MMP-13; value outside parenthesis): 17 nM
59	1.7	O=C(NCCCOc1ccc(S(=O)(=O)C2(C(=O)NO)CCOCC2)cc1)c1ccccn1 [Example 382]	–
–	–	COc1ccc(NC(=O)NCCCOc2ccc(S(=O)(=O)C3(C(=O)NO)CCOCC3)cc2)c(C)c1 [Example 498]	IC50 (Human recombinant MMP-2; value outside parentheses): 160 nM; IC50 (Human recombinant MMP-13; value outside parentheses): 14.8 nM
1.1	0.6	COc1ccc(SC[C@H](C)COc2ccc(S(=O)(=O)C3(C(=O)NO)CCOCC3)cc2)cc1 [Example 434]	–
425	350	CCOCC(C)(C)COc1ccc(S(=O)(=O)C2(C(=O)NO)CCOCC2)cc1 [Example 456]	–
–	–	CC(C)CCCc1cccc(CCCOc2ccc(S(=O)(=O)C3(C(=O)NO)CCOCC3)cc2)c1 [Example 612]	IC50 (Human recombinant MMP-2; value outside parentheses): 1230 nM; IC50 (Human recombinant MMP-13; value outside parentheses): 16.1 nM
103	8.6	CON(C)C(=O)CCCCOc1ccc(S(=O)(=O)C2(C(=O)NO)CCOCC2)cc1 [Example 329]	–
–	–	COc1ccc(C(=O)N(C)CCCOc2ccc(S(=O)(=O)C3(C(=O)NO)CCOCC3)cc2)cc1 [Example 205]	IC50 (Human recombinant MMP-2; value outside parenthesis): 4780 nM; IC50 (Human recombinant MMP-13; value outside parenthesis): 17.6 nM
–	–	COCCN1CCC(C(=O)NO)(S(=O)(=O)c2ccc(OCCCn3nnc(-c4cc(F)ccc4C)n3)cc2)CC1 [Example 141]	IC50 (Human recombinant MMP-2; value outside parenthesis): 32.5 nM; IC50 (Human recombinant MMP-13; value outside parenthesis): 3.6 nM
–	–	O=C(NO)C1(S(=O)(=O)c2ccc(OCCCS(=O)(=O)N3CCC(Oc4ccc(C(F)(F)F)cc4)CC3)cc2)CCOCC1 [Example 279]	IC50 (Human recombinant MMP-2; value outside parenthesis): 15.9 nM; IC50 (Human recombinant MMP-13; value outside parenthesis): 9.4 nM
100	8	COc1ccc(OC)c(-c2nnc(CCCOc3ccc(S(=O)(=O)C4(C(=O)NO)CCOCC4)cc3)o2)c1 [Example 291]	–
–	–	O=C(NCCOc1ccc(S(=O)(=O)C2(C(=O)NO)CCOCC2)cc1)c1ccc(-c2cc(C(F)(F)F)ccc2Cl)o1 [Example 611]	IC50 (Human recombinant MMP-2; value outside parentheses): 733 nM; IC50 (Human recombinant MMP-13; value outside parentheses): 13.6 nM
20	1.4	COc1ccc(S(=O)(=O)CCCCOc2ccc(S(=O)(=O)C3(C(=O)NO)CCOCC3)cc2)cc1 [Example 428]	–
–	–	O=C(NO)C1(S(=O)(=O)c2ccc(OCc3nc(-c4ccc(OC(F)(F)F)cc4)no3)cc2)CCOCC1 [Example 132]	IC50 (Human recombinant MMP-2; value outside parenthesis): 61.7 nM; IC50 (Human recombinant MMP-13; value outside parenthesis): 3.7 nM
–	–	COCCN1CCC(C(=O)NO)(S(=O)(=O)c2ccc(OCCCn3nc(C(F)(F)F)cc3-c3ccc(OC)cc3)cc2)CC1 [Example 198]	IC50 (Human recombinant MMP-2; value outside parenthesis): 4530 nM; IC50 (Human recombinant MMP-13; value outside parenthesis): 835 nM
–	–	O=C(NO)C1(S(=O)(=O)c2ccc(OCCCc3nnc(-c4ccncc4)o3)cc2)CCOCC1 [Example 568]	IC50 (Human recombinant MMP-2; value outside parentheses): 21 nM; IC50 (Human recombinant MMP-13; value outside parentheses): 1.5 nM
61.3	< 0.1	COc1ccc2cc(C(=O)CCCCOc3ccc(S(=O)(=O)C4(C(=O)NO)CCOCC4)cc3)ccc2c1 [Example 328]	–
–	–	CC(C)c1ccc(N2CCN(CCCOc3ccc(S(=O)(=O)C4(C(=O)NO)CCOCC4)cc3)C2=O)cc1 [Example 186]	IC50 (Human recombinant MMP-2; value outside parenthesis): 610 nM; IC50 (Human recombinant MMP-13; value outside parenthesis): 13.5 nM
3	14	CN(C)c1ccc(C(=O)NCCCCOc2ccc(S(=O)(=O)C3(C(=O)NO)CCOCC3)cc2)cc1 [Example 397]	–
> 10000	5150	COc1ccc(C(=O)N2CC[C@@H](Oc3ccc(S(=O)(=O)C4(C(=O)NO)CCOCC4)cc3)C2)cc1OC [Example 426]	–
–	–	O=C(NO)C1(S(=O)(=O)c2ccc(OCCCc3nc(-c4ccc(C(F)(F)F)cc4)no3)cc2)CCOCC1 [Example 239]	IC50 (Human recombinant MMP-2; value outside parenthesis): 237 nM; IC50 (Human recombinant MMP-13; value outside parenthesis): 2.5 nM
–	–	CC(C)Cc1ccc(-c2nnc(CCCOc3ccc(S(=O)(=O)C4(C(=O)NO)CCOCC4)cc3)o2)cc1 [Example 179]	IC50 (Human recombinant MMP-2; value outside parenthesis): 247 nM; IC50 (Human recombinant MMP-13; value outside parenthesis): 1.1 nM
–	–	O=C(NCCSc1ccc(S(=O)(=O)C2(C(=O)NO)CCOCC2)cc1)c1ccc(-c2ccc(O)cc2)cc1 [Example 605]	IC50 (Human recombinant MMP-2; value outside parentheses): 44 nM; IC50 (Human recombinant MMP-13; value outside parentheses): 3.8 nM
